Bridges are numbered along the chain shown (N, C = ends). Where no end group is shown, it is not given here.

Test [1] deals with human umbilical vein endothelial cells (HUVECs). The test is described as follows: Internalization of peptides by HUVECs. Format: cell-based. As to conditions: 10 μM, 24 h. On the procedure:
(§1) To study peptide internalization, CHO-K cells or HUVEC seeded on plastic coverslips were incubated with 10 μM fluorescein-conjugated peptides for 30 min to 72 hours, washed 3 times with PBS, and fixed with 4% paraformaldehyde for 20 min at room temperature. After several washes with PBS, the nuclei were visualized by staining with DAPI, and the slides were mounted with ProLong Gold antifade reagent (Invitrogen, Carlsbad, Calif.). The images were acquired using Olympus IX81 inverted and Olympus Fluoview FV1000 confocal microscopes. Z-stack images were taken by confocal microscope every 1 μm through the cells.

The test system of a further test is tendon and skin wounds. The test is described as follows: Tissue distribution of fluorescein-labeled peptides after intravenous injection. Format: in vivo, mice and rats. Conditions: FITC conjugates; for fluorescent signal in the wounds: 4 and 8 hours after injection. The source says:
Two types of injuries were used with patellar tendons: For phage screening in rats, patellar tendons were exposed through small skin incisions placed on the lateral side of the joint so that the skin wound and tendon wound were not in direct contact with each other. Six longitudinal, full-length incisions were made into the tendon. Full-thickness incision wounds, 1.5 cm in length, were made in skin on the back of the animal. The skin wounds were left uncovered without a dressing. For quantification of phage homing and peptide injections, two size 11 surgical scalpels were placed side-by-side and the central third of the patellar tendon was removed analogous to the graft used in anterior cruciate ligament reconstruction. Achilles tendons were wounded by making four longitudinal, full-length incisions into the tendon Skin wounds were 8 mm circular, full-thickness excision wounds, made to the skin with a biopsy punch. None of the procedures prevented the animals from bearing weight and moving immediately after the operation and without a noticeable […].
Peptides were synthesized with an automated peptide synthesizer by using standard solid-phase fluorenylmethoxycarbonyl chemistry. During synthesis, the peptides were labeled with fluorescein with an amino-hexanoic acid spacer. Each individual fluorescein-conjugated peptide was injected intravenously into the tail vein of rats or mice with wounds. The peptides were allowed to circulate for different periods of time, followed by heart perfusion. Tissues were embedded into OCT (Tissue-Tek) and processed for microscopy.
Frozen tissue sections were fixed in acetone for 10 min and incubated with 0.5% blocking reagent for 1 hour (NEN Life Sciences, Boston, Mass.). Tissue sections were incubated with the primary antibody overnight at 4° C. The following monoclonal (mAbs) and polyclonal antibodies (pAbs) were used: rabbit anti-T7-phage affinity-purified pAb (1:100), rat anti-mouse CD31 mAb (1:200; BD Pharmingen) and rabbit anti-FITC pAb (1:200, Invitrogen, Carlsbad, Calif.). The primary antibodies were detected with labeled secondary antibodies, and each staining experiment included sections stained with species-matched immunoglobulins as negative controls. The sections were washed several times with PBS, mounted in Vectashield Mounting Medium with DAPI (Vector Laboratories) and visualized under an inverted fluorescent or light microscope.

In test [2] the test system is MDA-MB-235 tumor xenografts. Kind of test: Homing of fluorescein-conjugated peptides to tumor xenografts. Format: in vivo, mice. As to conditions: intravenous, tumor collected 4 hours later; for homing to tumors and extravasation: fluorescence. On the procedure:
Fluorescein-conjugated peptides CAR, control peptide CAR2, CRK and control peptide KAREC were intravenously injected into mice with MDA-MB-235 tumor xenografts. Tumor tissue was collected 4 hours later and examined for the presence of the peptides. Blood vessels were stained with CD-31 antibody and the nuclei were stained with DAPI.
Fluorescein-conjugated peptides CAR, control peptide CAR2, CRK and control peptide KAREC were intravenously injected into mice with MDA-MB-235 tumor xenografts. Tumor tissue was collected 4 hours later and examined for the presence of the peptides. Adjacent tissue section were stained for blood vessels (CD-31), while the FITC-labeled peptide was first detected with rabbit anti-FITC followed by biotin-conjugated anti-rabbit IgG to confirm the source of fluorescent signal to be from the FITC-labeled peptide. The sections were then stained with hematoxylin-eosin.

Test [3] deals with CHO-K cells. Kind of test: FACS analysis of peptide binding to CHO-K cells. Conditions: for peptide binding to CHO-K cells: 5 μM peptide. Format: cell-based, Chinese hamster. On the procedure:
(§2) Peptide binding to cells was studied essentially as described above for phage. Peptides were tested at 5 μM concentration, with or without 5×10^9 phage. After incubation on ice for 30 min, the cells were washed and resuspended with PBS containing 2 μg/ml of propidium iodide (PI, Invitrogen, Carlsbad, Calif.) and analyzed using a FACScan flow cytometer (BD, San Jose, Calif.).
Background: A flow cytometer gives signals particle by particle.

Test [4] deals with pgsA-745 cells. Kind of test: Internalization of peptides by pgsA-745 cells. Format: cell-based, Chinese hamster. As to conditions: comparison of CHO-K and pgsA-745 cells.
The subject of test [5] is CHO-K cells. The test is described as follows: Internalization of fluorescein-labeled peptides by CHO-K cells. As to conditions: for fluorescence and localization in CHO-K cells by confocal microscopy: FITC-conjugated peptides 10 μM, 4 hours; for accumulation in CHO-K cells: comparison of CHO-K and pgsA-745 cells. Format: cell-based, Chinese hamster. On the procedure:
as §1

A further test concerns mitochondrial membranes. As to conditions: concentration of 10 μM; cited from earlier work.
Test [6] deals with pgsA-745 cells. The test is described as follows: FACS analysis of peptide binding to pgsA-745 cells. Format: cell-based, Chinese hamster. Conditions: 5 μM peptide. As for the experimental part: as §2

For “CARSKNKDC (disulfide 1-9 (inferred); not fully specified (N-terminus); also: FITC conjugate, site not given here) [tested as fluorescein (FITC) conjugate]”, in test [1], the “binding and internalization by HUVECs” value was “binds to cells and appears to enter the cells co-localizing with the nuclei”. In the test with tendon and skin wounds, the “fluorescent signal in non-tumor tissues (liver, kidney, lung and spleen)” value is reported as “did not differ from that of the fluorescein-labeled CAR2 or KAREC peptides”; the “fluorescent signal in the wounds” value is “strong fluorescent signal in the wounds”. In test [2], the “homing detected with anti-FITC antibody” value is “home to hypervascular regions surrounding the tumors and to tumor tissue”; the “homing to tumors and extravasation” value is “home to tumors and extravasate to tumor tissue”. Besides, the “peptide binding to CHO-K cells” value in the test on CHO-K cells [3] was “strong binding”. Moreover, in the test with CHO-K cells [3] (excess unlabeled peptide or phage), the “inhibition of labeled CAR peptide binding to CHO-K cells by competitor” value was “inhibited the binding in a dose-dependent manner”. Besides, in the test with pgsA-745 cells [4], the “accumulation in pgsA-745 cells” value is “only binds to and is internalized by the CHO-K cells”. In addition, in the test with CHO-K cells [5], the “fluorescence and localization in CHO-K cells by confocal microscopy” value (“fluorescence and localization” for short) is listed as “strong green fluorescence that mostly overlaps with nuclear DAPI staining”; the “accumulation in CHO-K cells” value was “only binds to and is internalized by the CHO-K cells”. The “time to accumulation inside the cells, overlapping with the nucleus” value with CHO-K cells [5] (fluorescein-labeled peptide) is reported as ≤ 30 min.

For the substance CARSTKATC [CAR2], the “fluorescent signal in the wounds” value with tendon and skin wounds was “no accumulated fluorescence”. Also, the “peptide binding to CHO-K cells” value in the test with CHO-K cells [3] was “bound only weakly”. Moreover, the “fluorescence and localization” value in the test on CHO-K cells [5] was “no detectable fluorescence”. Moreover, the “binding and internalization by CHO-K cells” value in the test on CHO-K cells [5] (fluorescein-labeled peptide) is “no binding or internalization”.

Take CGKRK [reference compound]: the “accumulation in pgsA-745 cells” value in the test with pgsA-745 cells [4] is “accumulated in the cytosol and nuclei”. Besides, the “effect of unlabeled competitor on uptake of fluorescein-labeled CAR peptide by CHO-K cells” value in the test on CHO-K cells [5] (10-molar excess of unlabeled peptide) was “did not detectably affect the uptake”. In the test with CHO-K cells [5], the “fluorescence and localization” value is “overlap with the nuclei and the cytosol”; the “accumulation in CHO-K cells” value was “accumulated in the cytosol and nuclei”.

On to “CRKDKC (not fully specified (N-terminus); cysteine pairing not given here; also: FITC conjugate, site not given here) [tested as fluorescein (FITC) conjugate]”, for which the “binding and internalization by HUVECs” value in test [1] was “binds to the cells, but does not internalize”. In the test with tendon and skin wounds, the “fluorescent signal in non-tumor tissues (liver, kidney, lung and spleen)” value was “did not differ from that of the fluorescein-labeled CAR2 or KAREC peptides”; the “fluorescent signal in the wounds” value is “strong fluorescent signal in the wounds”. Besides, in test [2], the “homing detected with anti-FITC antibody” value was “home to hypervascular regions surrounding the tumors and to tumor tissue”; the “homing to tumors and extravasation” value is “home to tumors and extravasate to tumor tissue”. The “fluorescence and localization” value in the test on CHO-K cells [5] is “no detectable fluorescence”. The “binding and internalization by CHO-K cells” value with CHO-K cells [5] (fluorescein-labeled peptide) is “bound to the cells, but was not detectably internalized”.

On to “D(KLAKLAK)2 (KLAKLAKKLAKLAKKLAKKLAKAAKKAA) [antimicrobial peptide which promotes disruption of mitochondrial membranes]”, for which the mitochondrial swelling entry in the test with mitochondrial membranes was “marked mitochondrial swelling”.

With “KAREC [unrelated 5 amino-acid control peptide, reference compound]”, the “peptide binding to pgsA-745 cells” value with pgsA-745 cells [6] is on record as “no binding”. Also, the “fluorescent signal in the wounds” value with tendon and skin wounds was “no detectable signal in the wounds”. In addition, in the test with CHO-K cells [3], the “peptide binding to CHO-K cells” value is “no binding”. In the test on CHO-K cells [5], the “fluorescence and localization” value is “no detectable fluorescence”.

Values taken from patent US8470780B2, “Methods and compositions related to targeting wounds, regenerating tissue, and tumors” (Sanford-Burnham Medical Research Institute, priority 2006, dated 2013).
